These are literature values, as cited in patent publication US20050261194A1, “Use of thymulin-like peptides for making pain-relieving medicines” (priority 2001, published 2005).

This data set has as its system rat. The conditions noted are these: cited from earlier work.

Where no end group is shown, it is not given here. [ ]: non-standard residue; d: D form. pGlu = O=C1CC[C@@H](C(=O)O)N1

Regarding “PyroGlu-Ala-Lys-Ser-Gln-Gly-Gly-Ser-Asn ([pGlu]AKSQGGSN) [thymuline]”, where the note is “micrograms in the rat, 50-100 μg/kg”, the “effect on hyperalgesia at higher doses” value is “reduces hyperalgesia”. Also, the “effect on hyperalgesia at low dose” value (nanograms in the rat, 0.2 to 20 μg/kg) is “induces hyperalgesia”.
